From ChEMBL document CHEMBL1131962, “A new class of selective and potent inhibitors of neuronal nitric oxide synthase” (Bioorg Med Chem Lett, 1999)

What was measured:
[1] = Maximum concentration in plasma at 30 min following 24 mg/kg subcutaneous dose in rats; format: ADME, organism-based; parameters: dose 24 mg/kg, route subcutaneous; conditions: rat, sc
[2] = target: T1, Muscarinic acetylcholine receptor M4 (Homo sapiens, UniProt P08173); test: Binding ability of compound to m4 muscarinic receptor
T1 sequence (P08173 whole entry): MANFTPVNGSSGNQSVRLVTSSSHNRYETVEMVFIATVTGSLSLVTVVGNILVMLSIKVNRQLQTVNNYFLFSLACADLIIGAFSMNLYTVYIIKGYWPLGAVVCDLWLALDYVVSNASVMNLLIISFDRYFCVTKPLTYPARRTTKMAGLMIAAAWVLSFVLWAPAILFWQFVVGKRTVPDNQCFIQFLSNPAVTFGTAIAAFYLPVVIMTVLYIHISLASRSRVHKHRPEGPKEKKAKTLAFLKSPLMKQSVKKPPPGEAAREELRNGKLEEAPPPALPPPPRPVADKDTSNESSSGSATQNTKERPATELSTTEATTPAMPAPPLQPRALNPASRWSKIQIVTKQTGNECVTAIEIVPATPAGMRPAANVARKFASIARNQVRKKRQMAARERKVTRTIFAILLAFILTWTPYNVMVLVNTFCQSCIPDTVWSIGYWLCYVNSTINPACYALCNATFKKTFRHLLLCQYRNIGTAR

Nitric oxide synthase 1 [3] = target: Nitric oxide synthase 1 (Homo sapiens, UniProt P29475); test: Inhibitory activity against human neuronal nitric oxide synthase (nNOS)
[4] = target: T2, Muscarinic acetylcholine receptor M2 (Homo sapiens, UniProt P08172); test: Binding affinity of compound to m2 muscarinic receptor
T2 sequence (P08172 whole entry): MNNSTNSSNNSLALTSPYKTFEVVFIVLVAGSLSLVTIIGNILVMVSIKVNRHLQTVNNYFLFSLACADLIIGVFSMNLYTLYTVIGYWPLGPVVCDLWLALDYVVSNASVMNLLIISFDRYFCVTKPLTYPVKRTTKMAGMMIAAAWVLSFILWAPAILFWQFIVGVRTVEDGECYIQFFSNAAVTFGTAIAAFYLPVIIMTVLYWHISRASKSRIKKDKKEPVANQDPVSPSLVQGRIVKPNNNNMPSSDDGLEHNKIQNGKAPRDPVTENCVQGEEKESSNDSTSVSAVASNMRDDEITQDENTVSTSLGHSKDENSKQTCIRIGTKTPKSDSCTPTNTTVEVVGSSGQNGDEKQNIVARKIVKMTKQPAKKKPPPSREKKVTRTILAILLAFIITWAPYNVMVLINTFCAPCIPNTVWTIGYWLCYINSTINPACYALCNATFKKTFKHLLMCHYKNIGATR

D(2) dopamine receptor [5] = target: T3, D(2) dopamine receptor (Homo sapiens, UniProt P14416); test: Binding affinity of compound to Dopamine receptor D2
Nitric oxide synthase 3 = target: T4, Nitric oxide synthase 3 (Homo sapiens, UniProt P29474); test: Inhibitory activity against human endothelial nitric oxide synthase (eNOS)
T4 sequence (P29474 whole entry): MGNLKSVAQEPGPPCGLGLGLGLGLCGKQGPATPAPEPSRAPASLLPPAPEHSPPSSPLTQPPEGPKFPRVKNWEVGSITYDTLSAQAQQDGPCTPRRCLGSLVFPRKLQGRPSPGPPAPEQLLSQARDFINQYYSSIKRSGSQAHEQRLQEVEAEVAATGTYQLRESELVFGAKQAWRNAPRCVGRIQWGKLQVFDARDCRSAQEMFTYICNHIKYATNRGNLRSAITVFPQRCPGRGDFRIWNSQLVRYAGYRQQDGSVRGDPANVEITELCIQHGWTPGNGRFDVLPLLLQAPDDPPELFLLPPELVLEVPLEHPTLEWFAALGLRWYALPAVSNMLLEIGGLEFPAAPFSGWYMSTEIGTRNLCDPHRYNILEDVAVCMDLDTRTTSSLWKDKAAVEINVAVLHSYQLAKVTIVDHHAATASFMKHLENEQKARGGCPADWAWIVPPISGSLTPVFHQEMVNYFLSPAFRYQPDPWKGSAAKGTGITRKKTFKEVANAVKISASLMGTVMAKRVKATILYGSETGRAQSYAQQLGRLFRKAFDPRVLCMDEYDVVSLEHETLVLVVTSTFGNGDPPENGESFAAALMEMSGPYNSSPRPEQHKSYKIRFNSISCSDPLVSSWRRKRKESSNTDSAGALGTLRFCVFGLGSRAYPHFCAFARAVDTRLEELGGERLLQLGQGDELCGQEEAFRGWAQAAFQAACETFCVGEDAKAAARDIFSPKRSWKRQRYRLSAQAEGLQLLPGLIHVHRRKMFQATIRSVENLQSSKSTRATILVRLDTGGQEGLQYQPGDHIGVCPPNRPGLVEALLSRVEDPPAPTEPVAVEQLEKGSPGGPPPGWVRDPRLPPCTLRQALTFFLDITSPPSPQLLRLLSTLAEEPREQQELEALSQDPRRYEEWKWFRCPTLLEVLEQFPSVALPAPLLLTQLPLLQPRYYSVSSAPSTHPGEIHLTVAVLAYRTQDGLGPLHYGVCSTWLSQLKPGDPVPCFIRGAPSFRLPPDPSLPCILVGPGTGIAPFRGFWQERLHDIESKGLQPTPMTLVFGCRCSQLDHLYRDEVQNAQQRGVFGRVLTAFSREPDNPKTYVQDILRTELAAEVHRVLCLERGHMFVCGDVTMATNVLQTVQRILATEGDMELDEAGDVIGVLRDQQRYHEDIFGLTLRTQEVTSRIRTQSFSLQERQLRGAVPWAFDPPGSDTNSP

[6] = Half life in rats; format: ADME, organism-based; conditions: rat, in vivo
[7] = Maximum concentration in whole brain at 30 min following 24 mg/kg subcutaneous dose in rats; format: ADME, organism-based; parameters: dose 24 mg/kg, route subcutaneous; conditions: rat, sc
[8] = Maximum concentration in CSF at 30 min following 24 mg/kg subcutaneous dose in rats; format: ADME, organism-based, Cerebrospinal fluid; parameters: dose 24 mg/kg, route subcutaneous; conditions: rat, sc
Nitric oxide synthase 1 [9] = target: Nitric oxide synthase 1 (Rattus norvegicus, UniProt P29476); test: Inhibitory activity against rat neuronal nitric oxide synthase (nNOS)
D(2) dopamine receptor [10] = target: T3, D(2) dopamine receptor; test: Binding ability of compound to human Dopamine receptor D2
[11] = target: 5-hydroxytryptamine receptor 2A (Homo sapiens, UniProt P28223); test: Binding affinity of compound to human 5-hydroxytryptamine 2A receptor
[12] = target: T5, 5-hydroxytryptamine receptor 1A (Homo sapiens, UniProt P08908); test: Binding affinity of compound to human 5-hydroxytryptamine 1A receptor
T5 sequence (P08908 whole entry): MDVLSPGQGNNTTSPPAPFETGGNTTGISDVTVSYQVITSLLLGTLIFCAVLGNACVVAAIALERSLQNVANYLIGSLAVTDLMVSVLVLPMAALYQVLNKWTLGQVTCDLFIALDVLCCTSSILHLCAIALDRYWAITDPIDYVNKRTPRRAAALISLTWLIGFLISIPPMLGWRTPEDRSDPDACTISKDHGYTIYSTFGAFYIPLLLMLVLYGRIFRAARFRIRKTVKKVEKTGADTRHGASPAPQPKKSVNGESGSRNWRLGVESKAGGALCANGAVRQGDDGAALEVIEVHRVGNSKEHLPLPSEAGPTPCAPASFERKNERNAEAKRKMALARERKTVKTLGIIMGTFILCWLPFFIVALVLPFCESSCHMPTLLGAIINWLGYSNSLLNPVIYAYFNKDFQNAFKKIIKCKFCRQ

Sequence of Nitric oxide synthase 1 (Homo sapiens, UniProt P29475) (P29475 whole entry): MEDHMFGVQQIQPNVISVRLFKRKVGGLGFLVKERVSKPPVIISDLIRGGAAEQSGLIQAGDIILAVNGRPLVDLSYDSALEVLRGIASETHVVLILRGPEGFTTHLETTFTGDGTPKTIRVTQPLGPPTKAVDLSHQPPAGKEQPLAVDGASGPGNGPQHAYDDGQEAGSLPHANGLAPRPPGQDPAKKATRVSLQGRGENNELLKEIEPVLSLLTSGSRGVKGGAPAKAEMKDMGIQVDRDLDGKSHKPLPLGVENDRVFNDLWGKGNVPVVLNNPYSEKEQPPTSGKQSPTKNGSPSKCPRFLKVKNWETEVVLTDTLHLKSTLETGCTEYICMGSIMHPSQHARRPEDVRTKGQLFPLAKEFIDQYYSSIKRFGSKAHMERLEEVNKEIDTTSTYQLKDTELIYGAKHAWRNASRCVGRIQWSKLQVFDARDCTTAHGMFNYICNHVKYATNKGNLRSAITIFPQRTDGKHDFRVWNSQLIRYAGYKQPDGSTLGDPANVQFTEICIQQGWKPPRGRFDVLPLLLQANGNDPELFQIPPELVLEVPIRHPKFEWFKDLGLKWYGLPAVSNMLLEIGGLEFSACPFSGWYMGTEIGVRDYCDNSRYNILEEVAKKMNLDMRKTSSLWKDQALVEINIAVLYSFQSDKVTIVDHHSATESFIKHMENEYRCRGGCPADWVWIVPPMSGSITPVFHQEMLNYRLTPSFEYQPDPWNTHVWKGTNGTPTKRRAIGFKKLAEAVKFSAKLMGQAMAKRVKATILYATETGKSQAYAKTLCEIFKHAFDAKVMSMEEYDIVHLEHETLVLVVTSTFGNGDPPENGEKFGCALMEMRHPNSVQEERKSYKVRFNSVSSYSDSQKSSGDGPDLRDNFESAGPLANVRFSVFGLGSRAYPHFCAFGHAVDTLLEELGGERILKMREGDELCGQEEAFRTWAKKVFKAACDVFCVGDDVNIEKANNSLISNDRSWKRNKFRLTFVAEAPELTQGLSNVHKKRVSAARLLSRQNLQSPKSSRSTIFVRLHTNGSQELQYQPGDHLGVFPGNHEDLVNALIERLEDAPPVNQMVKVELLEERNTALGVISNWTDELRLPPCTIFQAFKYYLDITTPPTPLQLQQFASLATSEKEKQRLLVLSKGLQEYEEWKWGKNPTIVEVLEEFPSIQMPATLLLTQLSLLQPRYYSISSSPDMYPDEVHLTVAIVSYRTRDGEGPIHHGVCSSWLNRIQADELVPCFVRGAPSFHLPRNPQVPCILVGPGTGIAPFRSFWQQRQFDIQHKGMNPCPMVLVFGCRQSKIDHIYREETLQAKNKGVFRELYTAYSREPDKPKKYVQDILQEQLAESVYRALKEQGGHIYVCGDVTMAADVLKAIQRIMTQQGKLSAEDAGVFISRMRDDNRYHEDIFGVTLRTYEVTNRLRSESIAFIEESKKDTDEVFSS
Sequence of Nitric oxide synthase 1 (Rattus norvegicus, UniProt P29476) (P29476 whole entry): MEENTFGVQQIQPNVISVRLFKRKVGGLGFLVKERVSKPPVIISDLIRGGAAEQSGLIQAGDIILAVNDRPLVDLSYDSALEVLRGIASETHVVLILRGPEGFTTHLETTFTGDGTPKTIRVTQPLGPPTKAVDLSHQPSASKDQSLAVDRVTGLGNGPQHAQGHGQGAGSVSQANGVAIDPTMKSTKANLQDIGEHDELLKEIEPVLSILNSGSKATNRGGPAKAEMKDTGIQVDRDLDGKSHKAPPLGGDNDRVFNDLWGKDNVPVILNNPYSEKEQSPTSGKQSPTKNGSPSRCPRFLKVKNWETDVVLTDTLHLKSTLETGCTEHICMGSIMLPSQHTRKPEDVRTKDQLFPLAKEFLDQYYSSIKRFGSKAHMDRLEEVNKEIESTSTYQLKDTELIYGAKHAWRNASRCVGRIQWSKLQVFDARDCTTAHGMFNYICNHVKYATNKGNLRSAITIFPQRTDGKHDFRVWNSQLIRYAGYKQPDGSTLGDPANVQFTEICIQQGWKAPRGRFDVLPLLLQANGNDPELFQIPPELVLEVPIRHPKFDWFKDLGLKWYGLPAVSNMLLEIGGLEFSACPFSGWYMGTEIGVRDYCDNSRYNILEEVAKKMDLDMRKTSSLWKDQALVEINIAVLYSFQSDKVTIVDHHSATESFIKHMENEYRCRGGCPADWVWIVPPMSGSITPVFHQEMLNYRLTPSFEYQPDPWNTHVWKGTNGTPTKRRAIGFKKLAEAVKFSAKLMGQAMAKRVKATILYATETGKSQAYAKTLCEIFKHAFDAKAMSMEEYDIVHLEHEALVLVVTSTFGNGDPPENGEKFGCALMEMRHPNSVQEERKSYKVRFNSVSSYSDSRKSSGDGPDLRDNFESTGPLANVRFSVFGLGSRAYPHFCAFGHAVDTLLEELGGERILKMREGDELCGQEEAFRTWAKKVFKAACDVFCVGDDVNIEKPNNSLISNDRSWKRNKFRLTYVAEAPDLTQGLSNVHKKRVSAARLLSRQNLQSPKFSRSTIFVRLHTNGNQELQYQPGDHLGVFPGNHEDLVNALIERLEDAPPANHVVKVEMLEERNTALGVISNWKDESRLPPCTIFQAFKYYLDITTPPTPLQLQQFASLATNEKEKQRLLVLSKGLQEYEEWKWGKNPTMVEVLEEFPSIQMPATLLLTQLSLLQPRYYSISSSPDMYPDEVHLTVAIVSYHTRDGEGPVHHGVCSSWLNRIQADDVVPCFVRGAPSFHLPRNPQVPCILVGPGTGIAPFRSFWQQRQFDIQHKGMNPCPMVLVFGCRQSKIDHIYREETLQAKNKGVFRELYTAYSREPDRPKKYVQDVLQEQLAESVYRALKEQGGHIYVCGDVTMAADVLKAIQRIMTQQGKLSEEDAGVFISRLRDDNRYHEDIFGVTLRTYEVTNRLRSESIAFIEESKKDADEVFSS
T3 sequence (P14416 whole entry): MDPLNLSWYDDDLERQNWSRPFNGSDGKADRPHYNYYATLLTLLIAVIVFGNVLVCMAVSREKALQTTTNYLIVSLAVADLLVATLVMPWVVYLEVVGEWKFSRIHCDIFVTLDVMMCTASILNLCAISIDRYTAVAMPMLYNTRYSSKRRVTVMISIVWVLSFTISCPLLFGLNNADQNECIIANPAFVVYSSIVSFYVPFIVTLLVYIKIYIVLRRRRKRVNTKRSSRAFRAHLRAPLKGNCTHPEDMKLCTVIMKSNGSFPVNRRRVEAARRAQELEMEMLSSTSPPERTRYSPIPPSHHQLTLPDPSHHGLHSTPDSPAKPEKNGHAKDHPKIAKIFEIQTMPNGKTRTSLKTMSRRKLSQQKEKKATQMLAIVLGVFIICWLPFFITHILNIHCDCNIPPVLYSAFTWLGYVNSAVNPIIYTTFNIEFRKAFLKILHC
Sequence of 5-hydroxytryptamine receptor 2A (P28223 whole entry): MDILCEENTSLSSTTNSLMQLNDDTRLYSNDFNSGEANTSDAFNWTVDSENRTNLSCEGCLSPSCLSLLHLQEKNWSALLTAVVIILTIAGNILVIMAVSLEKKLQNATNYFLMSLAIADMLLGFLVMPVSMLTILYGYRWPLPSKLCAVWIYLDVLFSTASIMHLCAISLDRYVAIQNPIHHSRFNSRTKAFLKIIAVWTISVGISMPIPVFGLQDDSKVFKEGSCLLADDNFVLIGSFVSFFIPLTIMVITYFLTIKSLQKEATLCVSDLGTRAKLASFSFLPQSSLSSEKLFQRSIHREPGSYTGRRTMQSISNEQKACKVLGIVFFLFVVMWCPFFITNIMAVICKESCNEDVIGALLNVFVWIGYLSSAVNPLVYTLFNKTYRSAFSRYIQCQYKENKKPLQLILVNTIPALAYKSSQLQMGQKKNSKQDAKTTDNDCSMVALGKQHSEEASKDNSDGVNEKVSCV

Molecule `Nc1cccc(-c2ccc(CCN3CCN(CC(=O)c4ccccc4)CC3)cc2)n1` has a Cmax [1] of 1700 ng/mL, a Ki [2] of 590 nM and an IC50 (Nitric oxide synthase 1 [3]) of 140 nM. The Ki [4] was 320 nM, the IC50 (D(2) dopamine receptor [5]) was greater than 10 µM and the IC50 (Nitric oxide synthase 3) was 887 nM. The half-life [6] was 216 min, the Cmax [7] was 11000 ng/mL and the Cmax [8] was 450 ng/mL. For the same molecule, the IC50 (Nitric oxide synthase 1 [9]) was 127 nM.

In the case of `CC(C)CN1CCN(CCc2ccc(-c3cccc(N)n3)cc2)CC1`, the IC50 (Nitric oxide synthase 1 [3]) is reported as 350 nM, the IC50 (Nitric oxide synthase 3) is reported as 372 nM and the IC50 (Nitric oxide synthase 1 [9]) is reported as 193 nM.

`CC(C)NC(=O)CN1CCN(CCc2ccc(-c3cccc(N)n3)cc2)CC1` showed an IC50 (Nitric oxide synthase 1 [3]) of 330 nM, an IC50 (Nitric oxide synthase 3) of 815 nM and an IC50 (Nitric oxide synthase 1 [9]) of 256 nM.

`Nc1cccc(-c2ccc(CCN3CCN(c4cccc5cccnc45)CC3)cc2)n1` showed an IC50 (Nitric oxide synthase 1 [3]) of 212 nM, a Ki (D(2) dopamine receptor [10]) of 11 nM and a Ki [11] of 14 nM. It also gave an IC50 (Nitric oxide synthase 3) of 825 nM, a Ki [12] of 3 nM and an IC50 (Nitric oxide synthase 1 [9]) of 130 nM.

Molecule `Nc1cccc(-c2ccc(CCN3CCN(CCc4ccccc4)CC3)cc2)n1` has an IC50 (Nitric oxide synthase 1 [3]) of 264 nM, an IC50 (Nitric oxide synthase 3) of 448 nM and an IC50 (Nitric oxide synthase 1 [9]) of 247 nM.

Molecule `Nc1cccc(-c2ccc(CCN3CCN(C(=O)Cc4ccccc4)CC3)cc2)n1` has an IC50 (Nitric oxide synthase 1 [3]) of 137 nM, an IC50 (Nitric oxide synthase 3) of 685 nM and an IC50 (Nitric oxide synthase 1 [9]) of 108 nM.

Work on `O=[N+]([O-])c1cccc2cn[nH]c12` [7-NITROINDAZOLE] yielded an IC50 (Nitric oxide synthase 1 [3]) of 2870 nM.
